Each compound was assayed on Toledo cells (assay: Cell proliferation assay, Toledo cells (MTS, 72 h)). Conditions: Homo sapiens, Toledo cells, MTS, read-out: Toledo IC50.
Type: cell-based
Experimental: MTS testing kit was purchased from Promega (Madison, Wis., USA). The RPMI-1640, Fetal bovine serum and Penicillin-Streptomycin were purchased from BI (Biological Industries, Beit Haemek, Israel). Dimethyl sulfoxide (DMSO) was purchased from Sigma (St. Louis, Mo., USA). Toledo (ATCC catalog #: CRL-2631) cells were cultured in RPMI-1640 supplemented with Penicillin-Streptomycin and 10% FBS.
To investigate whether a compound is able to inhibit the activity of BCL-2 in cells, a mechanism-based assay using Toledo lines was developed. In this assay, the inhibition of BCL-2 was reflected by the inhibition of cell proliferation of Toledo cells. Cells were plated into 96-well plates at the optimized cell density of 30000 cells/well. Plates were incubated at 37° C., with 5% CO2 for 4h. Compounds were serially diluted and added to the plates with the final concentrations of 10000, 3333.3, 1111.1, 370.4, 123.5, 41.2, 13.7, 4.6 and 1.5 nM. Plates were incubated at 37° C., with 5% CO2 for 72 h. 20 μl MTS was added into each well and the plates were incubated at 37° C., with 5% CO2 for exactly 2 h. The absorbance was measured by a microplate reader at 490 nm. IC50 was calculated using GraphPad Prism 5.0 software.

SMILES | IC50 [nM]
CC(C)c1ccccc1[C@@H]1CC[C@H](CO)N1C1CC2(CCN(c3ccc(C(=O)NS(=O)(=O)c4cc5c(c([N+](=O)[O-])c4)N[C@@H]([C@H]4CC[C@](C)(O)CC4)CO5)c(Oc4cnc5[nH]cc(F)c5c4)c3)CC2)C1 [Example D-254, 2-((3-fluoro-1H-pyrrolo[2,3-b]pyridin-5-yl)oxy)-N-(((S)-3-((1r,4S)-4-hydroxy-4-methylcyclohexyl)-5-nitro-3,4-dihydro-2H-benzo[b] [1,4]oxazin-7-yl)sulfonyl)-4-(2-((2R,5S)-2-(hydroxymethyl)-5-(2-isopropylphenyl)pyrrolidin-1-yl)-7-azaspiro[3.5]nonan-7-yl)benzamide] | 1
CC(C)c1ccccc1[C@@H]1CCC[C@@H]1N1CC2(CCN(c3ccc(C(=O)NS(=O)(=O)c4cnc(NC[C@H]5CC[C@](C)(O)CC5)c([N+](=O)[O-])c4)c(Oc4cc5cc[nH]c5nc4OC4COC4)c3)CC2)C1 (single isomer, unassigned) [Example A-162, N-((6-((((1r,4r)-4-hydroxy-4-methyl-cyclohexyl)methyl)amino)-5-nitro-pyridin-3-yl)sulfonyl)-4-(2-((1S,2S or 1R,2R)-2-(2-isopropylphenyl)cyclo-pentyl)-2,7-diazaspiro[3.5]nonan-7-yl)-2-((6-(oxetan-3-yloxy)-1H-pyrrolo [2,3-b]pyridin-5-yl)oxy)benzamide] | 1
CC(C)c1ccccc1[C@@H]1CCCN1C1CC2(CCN(c3ccc(C(=O)NS(=O)(=O)c4cc5c(c([N+](=O)[O-])c4)N[C@@H]([C@H]4CC[C@](C)(O)CC4)CO5)c(Oc4cc5cc[nH]c5nc4O[C@H]4CCNC4)c3)CC2)C1 (single isomer, unassigned) [Example D-225, N-(((S)-3-((1r,4S)-4-hydroxy-4-methylcyclohexyl)-5-nitro-3,4-dihydro-2H-benzo[b][1,4]oxazin-7-yl)sulfonyl)-4-(2-((R or S)-2-(2-isopropylphenyl)pyrrolidin-1-yl)-7-azaspiro[3.5]nonan-7-yl)-2-((6-(((S)-pyrrolidin-3-yl)oxy)-1H-pyrrolo[2,3-b]pyridin-5-yl)oxy)benzamide] | 1
CC(C)c1ccccc1[C@@H]1CC[C@@H](CO)N1C1CC2(CCN(c3ccc(C(=O)NS(=O)(=O)c4cc5c(c([N+](=O)[O-])c4)N[C@@H]([C@H]4CC[C@](C)(O)CC4)CO5)c(Oc4cnc5[nH]cc(F)c5c4)c3)CC2)C1 [Example D-253, 2-((3-fluoro-1H-pyrrolo[2,3-b]pyridin-5-yl)oxy)-N-(((S)-3-((1r,4S)-4-hydroxy-4-methylcyclohexyl)-5-nitro-3,4-dihydro-2H-benzo[b] [1,4]oxazin-7-yl)sulfonyl)-4-(2-((2S,5S)-2-(hydroxymethyl)-5-(2-isopropylphenyl)pyrrolidin-1-yl)-7-azaspiro[3.5]nonan-7-yl)benzamide] | 1
CC(C)c1ccccc1[C@@H]1CCCN1C1CC2(CCN(c3ccc(C(=O)NS(=O)(=O)c4cc5c(c([N+](=O)[O-])c4)N[C@@H]([C@H]4CC[C@](C)(O)CC4)CO5)c(Oc4cc5cc[nH]c5nc4OC4CC4)c3)CC2)C1 (single isomer, unassigned) [Example D-67, 2-((6-cyclopropoxy-1H-pyrrolo[2,3-b]pyridin-5-yl)oxy)-N-(((S)-3-((1r,4S)-4-hydroxy-4-methylcyclohexyl)-5-nitro-3,4-dihydro-2H-benzo [b][1,4]oxazin-7-yl)sulfonyl)-4-(2-((R or S)-2-(2-isopropylphenyl)pyrrolidin-1-yl)-7-azaspiro[3.5]nonan-7-yl)benzamide] | 1
COc1nc2[nH]ccc2cc1Oc1cc(N2CCC3(CC2)CN([C@H]2CCC[C@H]2c2ccccc2C(C)C)C3)ccc1C(=O)NS(=O)(=O)c1cnc(NC[C@H]2CC[C@](C)(O)CC2)c([N+](=O)[O-])c1 (single isomer, unassigned) [Example A-160, N-((6-(((1r,4r)-4-hydroxy-4-methyl-cyclohexyl)methyl)amino)-5-nitro-pyridin-3-yl)sulfonyl)-4-(2-((1S,2S or 1R,2R)-2-(2-isopropylphenyl)cyclo-pentyl)-2,7-diazaspiro[3.5]nonan-7-yl)-2-((6-methoxy-1H-pyrrolo[2,3-b]pyridin-5-yl)oxy)benzamide] | 1
COc1nc2[nH]ccc2cc1Oc1cc(N2CCC3(CC2)CC(N2CCOC[C@H]2c2ccccc2C(C)C)C3)ccc1C(=O)NS(=O)(=O)c1cnc(NC[C@H]2CC[C@](C)(O)CC2)c([N+](=O)[O-])c1 (single isomer, unassigned) [Example A-125, N-((6-((((1r,4r)-4-hydroxy-4-methyl-cyclohexyl)methyl)amino)-5-nitropyridin-3-yl)sulfonyl)-4-(2-((R or S)-3-(2-isopropylphenyl)morpholino)-7-azaspiro[3.5]nonan-7-yl)-2-((6-methoxy-1H-pyrrolo[2,3-b]pyridin-5-yl)oxy)benzamide] | 2
CC(C)c1ccccc1[C@@H]1CCCN1C1CC2(CCN(c3ccc(C(=O)NS(=O)(=O)c4cc5c(c([N+](=O)[O-])c4)N[C@@H]([C@H]4CC[C@](C)(O)CC4)CO5)c(Oc4cc5c(F)c[nH]c5nc4OC[C@H](C)O)c3)CC2)C1 (single isomer, unassigned) [Example D-221, 2-((3-fluoro-6-((S)-2-hydroxypropoxy)-1H-pyrrolo[2,3-b]pyridin-5-yl)oxy)-N-(((S)-3-((1r,4S)-4-hydroxy-4-methylcyclohexyl)-5-nitro-3,4-dihydro-2H-benzo[b][1,4]oxazin-7-yl)sulfonyl)-4-(2-((R or S)-2-(2-isopropylphenyl)pyrrolidin-1-yl)-7-azaspiro[3.5]nonan-7-yl)benzamide] | 1
COc1nc2[nH]ccc2cc1Oc1cc(N2CCC3(CC2)CN([C@H]2CCC[C@H]2c2ccccc2C(C)C)C3)ccc1C(=O)NS(=O)(=O)c1ccc(NC[C@H]2CC[C@](C)(O)CC2)c([N+](=O)[O-])c1 (single isomer, unassigned) [Example D-91, N-((4-((((1r,4r)-4-hydroxy-4-methylcyclohexyl)methyl)amino)-3-nitrophenyl)sulfonyl)-4-(2-((1S,2S or 1R,2R)-2-(2-isopropylphenyl)cyclopentyl)-2,7-diazaspiro[3.5]nonan-7-yl)-2-((6-methoxy-177-pyrrolo [2,3-b]pyridin-5-yl)oxy)benzamide] | 1
CC(C)c1ccccc1[C@@H]1CCCN1C1CC2(CCN(c3ccc(C(=O)NS(=O)(=O)c4cc5c(c([N+](=O)[O-])c4)N[C@H]([C@H]4CC[C@H](O)CC4)CO5)c(Oc4cnc5[nH]cc(F)c5c4)c3)CC2)C1 (single isomer, unassigned) [Example D-42, 2-((3-fluoro-1H-pyrrolo[2,3-b]pyridin-5-yl)oxy)-N-(((R)-3-((1r,4R)-4-hydroxycyclohexyl)-5-nitro-3,4-dihydro-2H-benzo[b][1,4]oxazin-7-yl)sulfonyl)-4-(2-((R or S)-2-(2-isopropylphenyl)pyrrolidin-1-yl)-7-azaspiro[3.5]nonan-7-yl)benzamide] | 1

Same assay, conditions: Homo sapiens, Toledo, read-out: Toledo IC50 (nM)

SMILES | IC50 [nM]
CC(C)c1ccccc1[C@@H]1COCCN1C1CC2(CCN(c3ccc(C(=O)NS(=O)(=O)c4ccc(NC[C@H]5CC[C@](C)(O)CC5)c([N+](=O)[O-])n4)c(Oc4cnc5[nH]ccc5c4)c3)CC2)C1 (single isomer, unassigned) [Example C-1, 2-((1H-pyrrolo[2,3-b]pyridin-5-yl)oxy)-N-((5-((((1r,4r)-4-hydroxy-4-methylcyclohexyl)methyl)amino)-6-nitropyridin-2-yl)sulfonyl)-4-(2-((R or S)-3-(2-isopropylphenyl)morpholino)-7-azaspiro[3.5]nonan-7-yl) benzamide] | 1
